For three compounds, IC50 results are on record in patent US8198287B2, “Substituted heteroaryl pyridopyrimidone derivatives” (Sanofi-Aventis, priority 2006, dated 2012).

Chain of GSK3β (P49841 whole entry): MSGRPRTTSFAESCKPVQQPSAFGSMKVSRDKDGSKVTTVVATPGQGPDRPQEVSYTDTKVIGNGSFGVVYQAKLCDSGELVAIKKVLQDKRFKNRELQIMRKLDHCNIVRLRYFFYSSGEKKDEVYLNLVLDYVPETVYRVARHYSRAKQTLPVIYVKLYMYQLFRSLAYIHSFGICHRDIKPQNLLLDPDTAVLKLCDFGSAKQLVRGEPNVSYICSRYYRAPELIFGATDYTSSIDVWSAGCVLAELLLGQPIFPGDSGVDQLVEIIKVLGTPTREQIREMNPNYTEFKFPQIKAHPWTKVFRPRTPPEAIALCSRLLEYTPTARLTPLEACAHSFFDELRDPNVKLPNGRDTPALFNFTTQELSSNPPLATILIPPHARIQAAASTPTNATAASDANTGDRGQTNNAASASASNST

This test has as its target GSK3β (Homo sapiens, UniProt P49841). Nature of the test: Inhibitory activity against GSK3β (33P-ATP phosphorylation of prephosphorylated GS1 peptide; two alternative protocols). Type of test: biochemical. The settings on record: first or second protocol, not specified per compound. How it is done: Inhibitory Activity of the Medicament of the Present Invention Against GSK3β
Two different protocols can be used.
In a first protocol: 7.5 μM of prephosphorylated GS1 peptide and 10 μM ATP (containing 300,000 cpm of ^33P-ATP) were incubated in 25 mM Tris-HCl, pH 7.5, 0.6 mM DTT, 6 mM MgCl2, 0.6 mM EGTA, 0.05 mg/ml BSA buffer for 1 hour at room temperature in the presence of GSK3beta (total reaction volume: 100 microliters).
In a second protocol: 4.1 μM of prephosphorylated GS1 peptide and 42 μM ATP (containing 260,000 cpm ^33P-ATP) were incubated in 80 mM Mes-NaOH, pH 6.5, 1 mM Mg acetate, 0.5 mM EGTA, 5 mM 2-mercaptoethanol, 0.02% Tween 20, 10% glycerol buffer for 2 hours at room temperature in the presence of GSK3beta.
Inhibitors were solubilized in DMSO (final solvent concentration in the reaction medium, 1%).
The reaction was stopped with 100 microliters of a solution made of 25 g polyphosphoric acid (85% P2O5), 126 ml 85% H3PO4, H2O to 500 ml and then diluted to 1:100 before use. An aliquot of the reaction mixture was then transferred to Whatman P81 cation exchange filters and rinsed with the solution described above. Incorporated ^33P radioactivity was determined by liquid scintillation spectrometry.
The phosphorylated GS-1 peptide had the following sequence:
NH2—[…](P)EDEE-COOH. (Woodgett, J. R. (1989) Analytical Biochemistry 180, 237-241.
The compound `Nc1c(Cl)cc(C(=O)NC2CCCn3c2nc(-c2ccncc2)cc3=O)c2c1OCCO2` (racemic) [13 of table 1, (+/−)8-Amino-7-chloro-2,3-dihydro-benzo[1,4]dioxine-5-carboxylic acid (4-oxo-2-pyridin-4-yl-6,7,8,9-tetrahydro-4H-pyrido[1,2-a]pyrimidin-9-yl)-amide] gave an IC50 of 14 nM.

As to `CSc1ncc(Cl)c(C(=O)NC2CCn3c2nc(-c2ccncn2)cc3=O)n1` (racemic) [14 of table 2, (+/−)5-Chloro-2-methylsulfanyl-pyrimidine-4-carboxylic acid (4-oxo-2-pyrimidin-4-yl-4,6,7,8-tetrahydro-pyrrolo[1,2-a]pyrimidin-8-yl) -amide], the midpoint of inhibition, the IC50, lay at 4 nM.

In the case of `O=C(NC1CCCCn2c1nc(-c1ccncn1)cc2=O)c1cccc(Cl)n1` (racemic) [53 of table 3, (+/−)6-Chloro-pyridine-2-carboxylic acid (4-oxo-2-pyrimidin-4-yl-4,6,7,8,9,10-hexahydro-pyrimido[1,2-a]azepin-10-yl)-amide], 5 nM corresponded to half-maximal inhibition (IC50).

As a reminder, the IC50 is the midpoint of a concentration-inhibition curve.
